The NIST ThermoML archive (doi:10.1016/j.jct.2008.04.008)
Numbers after ± are expanded uncertainties.

Assay: mn = molality of the nth substance listed, in mol/kg
Conditions: Liquid; for speed of sound: Pulse-echo method

Structure (SMILES): [Na+].[O-][Cl+3]([O-])([O-])[O-] [sodium perchlorate] + CO
- mass density (283.15 K, m1 = 0.06243): 805.671 ± 0.29 kg/m3
- mass density (283.15 K, m1 = 0.0815): 807.203 ± 0.29 kg/m3
- mass density (283.15 K, m1 = 0.1008): 808.744 ± 0.29 kg/m3
- mass density (283.15 K, m1 = 0.1221): 810.429 ± 0.29 kg/m3
- mass density (283.15 K, m1 = 0.1416): 811.984 ± 0.28 kg/m3
- mass density (283.15 K, m1 = 0.1625): 813.649 ± 0.28 kg/m3
- mass density (283.15 K, m1 = 0.2036): 816.875 ± 0.28 kg/m3
- mass density (283.15 K, m1 = 0.2459): 820.175 ± 0.28 kg/m3
- mass density (283.15 K, m1 = 0.2865): 823.32 ± 0.27 kg/m3
- mass density (283.15 K, m1 = 0.3276): 826.533 ± 0.27 kg/m3
- mass density (283.15 K, m1 = 0.3701): 829.792 ± 0.27 kg/m3
- mass density (283.15 K, m1 = 0.412): 832.991 ± 0.27 kg/m3
- mass density (288.15 K, m1 = 0.06243): 800.986 ± 0.29 kg/m3
- mass density (288.15 K, m1 = 0.0815): 802.517 ± 0.29 kg/m3
- mass density (288.15 K, m1 = 0.1008): 804.058 ± 0.29 kg/m3
- mass density (288.15 K, m1 = 0.1221): 805.746 ± 0.29 kg/m3
- mass density (288.15 K, m1 = 0.1416): 807.3 ± 0.29 kg/m3
- mass density (288.15 K, m1 = 0.1625): 808.965 ± 0.29 kg/m3
- mass density (288.15 K, m1 = 0.2036): 812.189 ± 0.28 kg/m3
- mass density (288.15 K, m1 = 0.2459): 815.49 ± 0.28 kg/m3
- mass density (288.15 K, m1 = 0.2865): 818.628 ± 0.28 kg/m3
- mass density (288.15 K, m1 = 0.3276): 821.841 ± 0.28 kg/m3
- mass density (288.15 K, m1 = 0.3701): 825.099 ± 0.27 kg/m3
- mass density (288.15 K, m1 = 0.412): 828.296 ± 0.27 kg/m3
- mass density (293.15 K, m1 = 0.06243): 796.296 ± 0.3 kg/m3
- mass density (293.15 K, m1 = 0.0815): 797.826 ± 0.3 kg/m3
- mass density (293.15 K, m1 = 0.1008): 799.365 ± 0.3 kg/m3
- mass density (293.15 K, m1 = 0.1221): 801.058 ± 0.29 kg/m3
- mass density (293.15 K, m1 = 0.1416): 802.609 ± 0.29 kg/m3
- mass density (293.15 K, m1 = 0.1625): 804.274 ± 0.29 kg/m3
- mass density (293.15 K, m1 = 0.2036): 807.5 ± 0.29 kg/m3
- mass density (293.15 K, m1 = 0.2459): 810.8 ± 0.29 kg/m3
- mass density (293.15 K, m1 = 0.2865): 813.937 ± 0.28 kg/m3
- mass density (293.15 K, m1 = 0.3276): 817.143 ± 0.28 kg/m3
- mass density (293.15 K, m1 = 0.3701): 820.402 ± 0.28 kg/m3
- mass density (293.15 K, m1 = 0.412): 823.6 ± 0.27 kg/m3
- speed of sound (298.15 K, m1 = 0.06243): 1106.7 ± 0.91 m/s
- speed of sound (298.15 K, m1 = 0.0815): 1107.7 ± 0.91 m/s
- speed of sound (298.15 K, m1 = 0.1008): 1108.9 ± 0.91 m/s
- speed of sound (298.15 K, m1 = 0.1221): 1110.1 ± 0.91 m/s
- speed of sound (298.15 K, m1 = 0.1416): 1111.2 ± 0.91 m/s
- speed of sound (298.15 K, m1 = 0.1625): 1112.4 ± 0.91 m/s
- speed of sound (298.15 K, m1 = 0.2036): 1115.1 ± 0.92 m/s
- speed of sound (298.15 K, m1 = 0.2459): 1117 ± 0.92 m/s
- speed of sound (298.15 K, m1 = 0.2865): 1119 ± 0.92 m/s
- speed of sound (298.15 K, m1 = 0.3276): 1121.3 ± 0.92 m/s
- speed of sound (298.15 K, m1 = 0.3701): 1123.6 ± 0.92 m/s
- speed of sound (298.15 K, m1 = 0.412): 1125.5 ± 0.92 m/s
- mass density (298.15 K, m1 = 0.06243): 791.593 ± 0.3 kg/m3
- mass density (298.15 K, m1 = 0.0815): 793.122 ± 0.3 kg/m3
- mass density (298.15 K, m1 = 0.1008): 794.669 ± 0.3 kg/m3
- mass density (298.15 K, m1 = 0.1221): 796.356 ± 0.3 kg/m3
- mass density (298.15 K, m1 = 0.1416): 797.903 ± 0.3 kg/m3
- mass density (298.15 K, m1 = 0.1625): 799.57 ± 0.3 kg/m3
- mass density (298.15 K, m1 = 0.2036): 802.798 ± 0.29 kg/m3
- mass density (298.15 K, m1 = 0.2459): 806.099 ± 0.29 kg/m3
- mass density (298.15 K, m1 = 0.2865): 809.237 ± 0.29 kg/m3
- mass density (298.15 K, m1 = 0.3276): 812.442 ± 0.28 kg/m3
- mass density (298.15 K, m1 = 0.3701): 815.691 ± 0.28 kg/m3
- mass density (298.15 K, m1 = 0.412): 818.891 ± 0.28 kg/m3
- mass density (303.15 K, m1 = 0.06243): 786.871 ± 0.31 kg/m3
- mass density (303.15 K, m1 = 0.0815): 788.409 ± 0.31 kg/m3
- mass density (303.15 K, m1 = 0.1008): 789.952 ± 0.31 kg/m3
- mass density (303.15 K, m1 = 0.1221): 791.635 ± 0.3 kg/m3
- mass density (303.15 K, m1 = 0.1416): 793.191 ± 0.3 kg/m3
- mass density (303.15 K, m1 = 0.1625): 794.858 ± 0.3 kg/m3
- mass density (303.15 K, m1 = 0.2036): 798.077 ± 0.3 kg/m3
- mass density (303.15 K, m1 = 0.2459): 801.382 ± 0.29 kg/m3
- mass density (303.15 K, m1 = 0.2865): 804.52 ± 0.29 kg/m3
- mass density (303.15 K, m1 = 0.3276): 807.725 ± 0.29 kg/m3
- mass density (303.15 K, m1 = 0.3701): 810.974 ± 0.29 kg/m3
- mass density (303.15 K, m1 = 0.412): 814.168 ± 0.28 kg/m3
- mass density (308.15 K, m1 = 0.06243): 782.134 ± 0.31 kg/m3
- mass density (308.15 K, m1 = 0.0815): 783.67 ± 0.31 kg/m3
- mass density (308.15 K, m1 = 0.1008): 785.213 ± 0.31 kg/m3
- mass density (308.15 K, m1 = 0.1221): 786.904 ± 0.31 kg/m3
- mass density (308.15 K, m1 = 0.1416): 788.455 ± 0.31 kg/m3
- mass density (308.15 K, m1 = 0.1625): 790.121 ± 0.31 kg/m3
- mass density (308.15 K, m1 = 0.2036): 793.334 ± 0.3 kg/m3
- mass density (308.15 K, m1 = 0.2459): 796.642 ± 0.3 kg/m3
- mass density (308.15 K, m1 = 0.2865): 799.783 ± 0.3 kg/m3
- mass density (308.15 K, m1 = 0.3276): 802.987 ± 0.29 kg/m3
- mass density (308.15 K, m1 = 0.3701): 806.236 ± 0.29 kg/m3
- mass density (308.15 K, m1 = 0.412): 809.417 ± 0.29 kg/m3
- mass density (313.15 K, m1 = 0.06243): 777.365 ± 0.32 kg/m3
- mass density (313.15 K, m1 = 0.0815): 778.903 ± 0.32 kg/m3
- mass density (313.15 K, m1 = 0.1008): 780.447 ± 0.32 kg/m3
- mass density (313.15 K, m1 = 0.1221): 782.14 ± 0.31 kg/m3
- mass density (313.15 K, m1 = 0.1416): 783.694 ± 0.31 kg/m3
- mass density (313.15 K, m1 = 0.1625): 785.36 ± 0.31 kg/m3
- mass density (313.15 K, m1 = 0.2036): 788.581 ± 0.31 kg/m3
- mass density (313.15 K, m1 = 0.2459): 791.885 ± 0.3 kg/m3
- mass density (313.15 K, m1 = 0.2865): 795.021 ± 0.3 kg/m3
- mass density (313.15 K, m1 = 0.3276): 798.225 ± 0.3 kg/m3
- mass density (313.15 K, m1 = 0.3701): 801.475 ± 0.29 kg/m3
- mass density (313.15 K, m1 = 0.412): 804.668 ± 0.29 kg/m3
